From patent publication US7160890B2, “Compounds specific to adenosine A3 receptor and uses thereof” (OSI Pharmaceuticals, Inc., priority 1999, dated 2007)

What was measured:
[1] = target: T1, human A2a receptor subtype (Homo sapiens, UniProt P29274); experiment: Adenosine 2a receptor subtype competition radioligand binding, [3H]CGS-21680, HEK293 membranes; settings: Table 13, concentration not given
T1 construct: expressed in transfected cells; host or cells: HEK-293 (Cadus clone #5)

[2] = target: T2, human A3 receptor subtype (Homo sapiens, UniProt P0DMS8); experiment: Adenosine 3 receptor competition radioligand binding, [125I]AB-MECA, HEK293 membranes; settings: compared with compound 1308
T2 construct: expressed in transfected cells; host or cells: HEK293
T2 sequence (P0DMS8 1-318): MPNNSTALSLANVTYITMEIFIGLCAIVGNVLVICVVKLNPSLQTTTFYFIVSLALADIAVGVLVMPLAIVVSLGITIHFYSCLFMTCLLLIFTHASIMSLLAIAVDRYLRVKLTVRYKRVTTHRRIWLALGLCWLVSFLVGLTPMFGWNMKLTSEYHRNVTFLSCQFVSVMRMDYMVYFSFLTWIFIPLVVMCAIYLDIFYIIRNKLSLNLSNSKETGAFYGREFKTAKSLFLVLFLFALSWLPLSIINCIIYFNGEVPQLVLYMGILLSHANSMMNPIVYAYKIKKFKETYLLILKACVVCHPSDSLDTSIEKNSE

[3] = target: human A1 adenosine receptor (Homo sapiens, UniProt P30542); settings: cited from earlier work
[4] = target: T3, human A1 receptor subtype (Homo sapiens, UniProt P30542); settings: Table 13, concentration not given
T3 sequence (P30542 1-326): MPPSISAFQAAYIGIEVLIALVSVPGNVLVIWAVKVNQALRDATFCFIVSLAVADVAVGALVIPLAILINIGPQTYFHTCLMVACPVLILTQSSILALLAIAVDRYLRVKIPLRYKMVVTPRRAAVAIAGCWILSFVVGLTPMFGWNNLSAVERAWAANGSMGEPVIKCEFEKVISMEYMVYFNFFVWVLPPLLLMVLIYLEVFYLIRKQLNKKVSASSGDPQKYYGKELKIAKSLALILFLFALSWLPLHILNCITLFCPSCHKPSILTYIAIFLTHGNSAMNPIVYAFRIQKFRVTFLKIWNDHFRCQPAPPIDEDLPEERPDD

T1 sequence (P29274 whole entry): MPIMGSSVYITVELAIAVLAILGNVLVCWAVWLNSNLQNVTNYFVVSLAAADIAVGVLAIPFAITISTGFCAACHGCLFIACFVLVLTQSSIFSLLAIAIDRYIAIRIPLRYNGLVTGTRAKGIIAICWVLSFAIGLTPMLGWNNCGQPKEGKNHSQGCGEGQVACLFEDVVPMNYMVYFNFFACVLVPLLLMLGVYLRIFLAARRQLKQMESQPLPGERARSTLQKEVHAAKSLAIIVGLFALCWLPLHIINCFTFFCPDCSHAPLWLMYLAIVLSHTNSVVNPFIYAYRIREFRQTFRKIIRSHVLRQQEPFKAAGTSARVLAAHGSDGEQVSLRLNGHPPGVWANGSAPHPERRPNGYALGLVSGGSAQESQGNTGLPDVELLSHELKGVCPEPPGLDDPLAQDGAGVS

CNC(=O)NCCCNc1nc(-c2ccccc2)nc2[nH]c(C)c(C)c12 [Compound 1310]
Binding A2a, value given in % [1]: 76%

c1ccc(-c2nc(NCCc3cnc[nH]3)c3cc[nH]c3n2)cc1 [Compound 1720, [2-(3H-Imidazol-4-yl)-ethyl]-(2-phenyl-7H-pyrrolo[2,3-d]pyrimidin-4-yl)-amine]
A3 receptor binding affinity relative to reference compound 1308 [2]: greater than 10 times
melting point: 234 to 235 °C

CC(Cc1ccccc1)Nc1ncnc2c1ncn2[C@@H]1O[C@H](CO)[C@@H](O)[C@H]1O (single isomer, unassigned; (-)) [PIA, (−)-N6-(2-phenylisopropyl)-adenosine]
reported affinity [3]: approximately 50 nM

Cc1[nH]c2nc(-c3ccccc3)nc(NCCNC(=O)C3(N)CC3)c2c1C [Compound 1313]
Binding A1, value printed in % [4]: 30%
